Assay results published in patent publication US20080176932A1, “Pharmaceutical Compositions Containing Baicalein And Baicalin With Synergistic Effect In Tumor Treatment” (priority 2005, published 2008).
Like-named read-outs stand apart in the source and are kept apart here.

What was measured:
L1210 cells [1] = assay type: in vivo; details: B 30 mg/kg i.p., day 1-10
Description: (§1) L1210 cells on the growth phase were injected at 1×10^5 cells via I.P. into BDF1 female mice (weight approximately 20 g). The next day of implantation, mice were grouped, and received an injection of 0.1 ml/10 g weight of the drug. […] The number of mice of each group was 10. Mice were weighed before and after the treatment. Survival time of each mouse was recorded. The results of changes in increasing of life span of mice were used in assessment of response. The increase of life span was determined as; increase of life span rate=(median survival time of treated animals/median survival time of control animals−1)×100%, the data were analyzed by t-test.

[2] = system: Human colon cancer cell line HCT116; experiment: MTT growth inhibition, baicalein and scutellarin single or combination; assay type: cell-based
L1210 cells [3] = assay type: in vivo; details: B 30 mg/kg i.p., day 1-10; remark: listed apart in the source
Description: as §1

[4] = system: Human breast cancer cell line MCF-7
[5] = system: human liver cancer cell line HepG2; experiment: MTT growth inhibition, baicalein and scutellarin single or combination; assay type: cell-based
[6] = system: Murine melanoma cell line B 16; experiment: Solid tumor transplant model, baicalein and scutellarin; assay type: in vivo, C57BL/6 female mice; details: B16 mice, B 30 mg/kg i.p., day 1-10
Description: (§2) C57BL/6 female mice (weight approximately 20 g) were used in this study. Murine melanoma cell line B 16 cells, 2×10^6 tumor cells were implanted s.c. into the armpit of each mice after two passenges in vitro cultured. On the next day after implantation, mice were randomly grouped at 10 per group and received 0.1ml/10 g weight of the drugs. […] The number of mice of each group was 10. Mice were weighed before and post the treatment. Animals were killed on day 15, and the tumors were removed and weighted.

[7] = system: Human leukemia cell line HL60; experiment: MTT growth inhibition, baicalein and baicalin single or combination; assay type: cell-based
Description: Human leukemia cell line HL60—Table 8.

[8] = system: Murine melanoma cell line B 16; experiment: Solid tumor transplant model, baicalein and baicalin; assay type: in vivo; details: B16 mice, B 30 mg/kg i.p., day 1-10
Description: as §2, with “0.1 ml/10” for “0.1ml/10”

[9] = system: human liver cancer cell line HepG2; experiment: MTT growth inhibition, baicalein and baicalin single or combination; assay type: cell-based
Description: The results of experiments with human liver cancer cell line HepG2 are illustrated in Table 1;

[10] = system: Human gastric cancer cell line MKN28; experiment: MTT growth inhibition, baicalein and scutellarin single or combination; assay type: cell-based
[11] = system: Human gastric cancer cell line MKN28; experiment: MTT growth inhibition, baicalein and baicalin single or combination; assay type: cell-based
Description: Human gastric cancer cell line MKN28—Table 4;

[12] = system: Human leukemia cell line HL60; experiment: MTT growth inhibition, baicalein and scutellarin single or combination; assay type: cell-based
[13] = system: Human breast cancer cell line MCF-7; experiment: as above; assay type: cell-based
Description: (§3) Cells were seeded onto 96-well plate at 5×10^3 cells/well, and grown in culture medium containing 10% fetal bovine serum (FBS). […] The viable cell growth was determined by MTT assay after 72-h continuous exposure.
(§4) A CI below 1 is an indication of synergy, while a CI equal to 1 represents addition, and a CI above 1 indicates antagonism.

[14] = system: Human prostate cancer cell line PC3; experiment: as above; assay type: cell-based
Description: as §3, §4

[15] = system: Human esophagus cancer cell line TE2; experiment: as above; assay type: cell-based
Description: as §3, §4

[16] = system: Human colon cancer cell line HCT116; experiment: MTT growth inhibition, baicalein and baicalin single or combination; assay type: cell-based
Description: Human colon cancer cell line HCT116—Table 2;

[17] = system: Human esophagus cancer cell line TE2
[18] = system: Human prostate cancer cell line PC3
[19] = system: Human hung cancer cell line A549; experiment: MTT growth inhibition, baicalein and scutellarin single or combination; assay type: cell-based
[20] = system: Human hung cancer cell line A549; experiment: MTT growth inhibition, baicalein and baicalin single or combination; assay type: cell-based
Description: Human hung cancer cell line A549—Table 3;

For O=c1cc(-c2ccccc2)oc2cc(O)c(O)c(O)c12 [B, baicalein], the “Number of mice Through surviving 15 days/total number” value (L1210 cells [1]) was 10/10, the “ILS(%) increase of life span” value (L1210 cells [1]; L1210 mice) was 31.6% and the “Inhibition of cell growth (%)” value ([2]; single dose 2.5 μm) was 5.8 ± 2%. For the same molecule, the “Inhibition of cell growth (%)” value ([2]; single dose 5 μm) was 10.5 ± 2.3%, the “Inhibition of cell growth (%)” value ([2]; single dose 10 μm) was 29.2 ± 2.7% and the “Inhibition of cell growth (%)” value ([2]; single dose 20 μm) was 47 ± 3.1%. For the same molecule, the “Inhibition of cell growth (%)” value ([2]; single dose 40 μm) was 91.15 ± 2.5%, the “Number of mice Surviving through 15 days/total number” value (L1210 cells [3]) was 10/10 and the “ILS(%) increase of life span” value (L1210 cells [3]; L1210 mice) was 31.6%. The “Inhibition of cell growth (%)” value ([4]; single dose 2.5 μm) was 7.2 ± 2%, the “Inhibition of cell growth (%)” value ([4]; single dose 5 μm) was 27.55 ± 2% and the “Inhibition of cell growth (%)” value ([4]; single dose 10 μm) was 51 ± 3%. For the same molecule, the “Inhibition of cell growth (%)” value ([4]; single dose 20 μm) was 71.77 ± 2.5%, the “Inhibition of cell growth (%)” value ([4]; single dose 40 μm) was 90.5 ± 2.5% and the “Inhibition of cell growth (%)” value ([5]; single dose 2.5 μm) was 7.35 ± 2.2%. For the same molecule, the “Inhibition of cell growth (%)” value ([5]; single dose 5 μm) was 32.7 ± 2.3%, the “Inhibition of cell growth (%)” value ([5]; single dose 10 μm) was 49.8 ± 2.1% and the “Inhibition of cell growth (%)” value ([5]; single dose 20 μm) was 58.5 ± 1.2%. For the same molecule, the “Inhibition of cell growth (%)” value ([5]; single dose 40 μm) was 90.18 ± 2.5%, the “Final Tumor WT. (g) Mean ± SD” value ([6]; day 15) was 1.72 ± 0.09 g and the “Tumor Growth Inhibition %” value ([6]; day 15) was 21.1%. The “Number of mice through 15 days/total number” value [6] was 10/10, the “Weight Change %” value [6] was under 5% and the “Inhibition of cell growth (%)” value ([7]; single dose 2.5 μm) was 6.5 ± 2%. For the same molecule, the “Inhibition of cell growth (%)” value ([7]; single dose 5 μm) was 21.8 ± 3%, the “Inhibition of cell growth (%)” value ([7]; single dose 10 μm) was 41.32 ± 2.7% and the “Inhibition of cell growth (%)” value ([7]; single dose 20 μm) was 67.6 ± 3.2%. For the same molecule, the “Inhibition of cell growth (%)” value ([7]; single dose 40 μm) was 86.77 ± 3.3%, the “Final Tumor WT. (g) Mean ± SD” value ([8]; day 15) was 1.72 ± 0.09 g and the “Tumor Growth Inhibition %” value ([8]; day 15) was 21.1%. The “Weight Change %” value [8] was under 5%, the “Inhibition of cell growth (%)” value ([9]; single dose 2.5 μm) was 7.4 ± 2% and the “Inhibition of cell growth (%)” value ([9]; single dose 5 μm) was 34.93 ± 3%. The “Inhibition of cell growth (%)” value ([9]; single dose 10 μm) was 50.2 ± 3%, the “Inhibition of cell growth (%)” value ([9]; single dose 20 μm) was 58.5 ± 2.5% and the “Inhibition of cell growth (%)” value ([9]; single dose 40 μm) was 89.18 ± 2%. For the same molecule, the “Inhibition of cell growth (%)” value ([10]; single dose 2.5 μm) was 16.5 ± 1.1%, the “Inhibition of cell growth (%)” value ([10]; single dose 5 μm) was 27.7 ± 2.1% and the “Inhibition of cell growth (%)” value ([10]; single dose 10 μm) was 42.8 ± 2.3%. For the same molecule, the “Inhibition of cell growth (%)” value ([10]; single dose 20 μm) was 65.6 ± 3%, the “Inhibition of cell growth (%)” value ([10]; single dose 40 μm) was 80.21 ± 2.5% and the “Inhibition of cell growth (%)” value ([11]; single dose 2.5 μm) was 7.7 ± 3%. The “Inhibition of cell growth (%)” value ([11]; single dose 5 μm) was 37.11 ± 2.9%, the “Inhibition of cell growth (%)” value ([11]; single dose 10 μm) was 53 ± 3.2% and the “Inhibition of cell growth (%)” value ([11]; single dose 20 μm) was 58 ± 2%. The “Inhibition of cell growth (%)” value ([11]; single dose 40 μm) was 77 ± 3%, the “Inhibition of cell growth (%)” value ([12]; single dose 2.5 μm) was 7.5 ± 2.7% and the “Inhibition of cell growth (%)” value ([12]; single dose 5 μm) was 22.7 ± 2.2%. The “Inhibition of cell growth (%)” value ([12]; single dose 10 μm) was 41.8 ± 2.7%, the “Inhibition of cell growth (%)” value ([12]; single dose 20 μm) was 60.6 ± 3.2% and the “Inhibition of cell growth (%)” value ([12]; single dose 40 μm) was 89.18 ± 2.1%. The “Inhibition of cell growth (%)” value ([13]; single dose 2.5 μm) was 0.8 ± 2%, the “Inhibition of cell growth (%)” value ([13]; single dose 5 μm) was 13.02 ± 2.5% and the “Inhibition of cell growth (%)” value ([13]; single dose 10 μm) was 51.02 ± 2.2%. The “Inhibition of cell growth (%)” value ([13]; single dose 20 μm) was 64.35 ± 2.2%, the “Inhibition of cell growth (%)” value ([13]; single dose 40 μm) was 93 ± 2.5% and the “Inhibition of cell growth (%)” value ([14]; single dose 2.5 μm) was 7.2 ± 5%. For the same molecule, the “Inhibition of cell growth (%)” value ([14]; single dose 5 μm) was 22.8 ± 6%, the “Inhibition of cell growth (%)” value ([14]; single dose 10 μm) was 50.9 ± 5% and the “Inhibition of cell growth (%)” value ([14]; single dose 20 μm) was 69.9 ± 5%. The “Inhibition of cell growth (%)” value ([14]; single dose 40 μm) was 92.9 ± 7%, the “Inhibition of cell growth (%)” value ([15]; single dose 2.5 μm) was 5 ± 2% and the “Inhibition of cell growth (%)” value ([15]; single dose 5 μm) was 16.8 ± 1.2%. The “Inhibition of cell growth (%)” value ([15]; single dose 10 μm) was 38.4 ± 2.1%, the “Inhibition of cell growth (%)” value ([15]; single dose 20 μm) was 66.85 ± 2% and the “Inhibition of cell growth (%)” value ([15]; single dose 40 μm) was 83.1 ± 2.1%. The “Inhibition of cell growth (%)” value ([16]; single dose 2.5 μm) was 5.8 ± 2%, the “Inhibition of cell growth (%)” value ([16]; single dose 5 μm) was 20.5 ± 3% and the “Inhibition of cell growth (%)” value ([16]; single dose 10 μm) was 29.2 ± 3%. The “Inhibition of cell growth (%)” value ([16]; single dose 20 μm) was 41 ± 2.7%, the “Inhibition of cell growth (%)” value ([16]; single dose 40 μm) was 89.15 ± 3% and the “Inhibition of cell growth (%)” value ([17]; single dose 2.5 μm) was 5.5 ± 1%. For the same molecule, the “Inhibition of cell growth (%)” value ([17]; single dose 5 μm) was 17.2 ± 2.8%, the “Inhibition of cell growth (%)” value ([17]; single dose 10 μm) was 28 ± 2% and the “Inhibition of cell growth (%)” value ([17]; single dose 20 μm) was 57.9 ± 2.1%. The “Inhibition of cell growth (%)” value ([17]; single dose 40 μm) was 85.2 ± 2.3%, the “Inhibition of cell growth (%)” value ([18]; single dose 2.5 μm) was 7.2 ± 5% and the “Inhibition of cell growth (%)” value ([18]; single dose 5 μm) was 22.8 ± 6%. For the same molecule, the “Inhibition of cell growth (%)” value ([18]; single dose 10 μm) was 50.9 ± 5%, the “Inhibition of cell growth (%)” value ([18]; single dose 20 μm) was 69.9 ± 5% and the “Inhibition of cell growth (%)” value ([18]; single dose 40 μm) was 92.9 ± 7%. For the same molecule, the “Inhibition of cell growth (%)” value ([19]; single dose 2.5 μm) was 10.55 ± 1.2%, the “Inhibition of cell growth (%)” value ([19]; single dose 5 μm) was 17.19 ± 2.2% and the “Inhibition of cell growth (%)” value ([19]; single dose 10 μm) was 40.8 ± 3.2%. The “Inhibition of cell growth (%)” value ([19]; single dose 20 μm) was 62.5 ± 2%, the “Inhibition of cell growth (%)” value ([19]; single dose 40 μm) was 90.18 ± 2.1% and the “Inhibition of cell growth (%)” value ([20]; single dose 2.5 μm) was 13.5 ± 4%. The “Inhibition of cell growth (%)” value ([20]; single dose 5 μm) was 17.18 ± 3%, the “Inhibition of cell growth (%)” value ([20]; single dose 10 μm) was 39.2 ± 2% and the “Inhibition of cell growth (%)” value ([20]; single dose 20 μm) was 63.85 ± 3.2%. For the same molecule, the “Inhibition of cell growth (%)” value ([20]; single dose 40 μm) was 96.41 ± 2%.
